According to patent publication US6967196B1, “Sulfonamide compounds and uses thereof” (Bristol-Myers Squibb Company, priority 1999, dated 2005):
Structures can show the parent of a compound that is named as a salt. Where two headings read alike, the source gives them in different places. Values belong to the compound of their own block, whether it stands above or below them.

System: amyloid β production in transfected H4 (human neuroglioma) cells stably expressing APP constructs
Assay: In vitro cell-based assay of inhibitors of amyloid β production (ELISA)
Procedure: In Vitro Cell-Based Assay of Inhibitors of Amyloid β Production
Transfected H4 (human neuroglioma) cells stably expressing APP constructs are used to identify and assess inhibitors of Aβ production. In brief, cells lines are exposed to compounds, and the effect of each compound on amyloid β production is determined by measuring the amount of amyloid β produced using an enzyme linked immunosorbent assay (ELISA) that detects amyloid β (see, for example, Seubert et al., (1992) Nature, 359:325-327).
Transfected cells that stably express wild-type and variant forms of APP are plated in 96-well format plates at a density sufficient for the rapid detection of the secreted amyloid β (experimentally predetermined for a particular stable cell population). Cells are plated at least six hours prior to the introduction of the test compound at which time the growth medium is replaced by fresh medium containing the compound to be tested. All synthetic agents are initially screened at doses ranging from 10-100 μM. Higher dilutions of agents can be used to minimize cytotoxicity. Incubation of cells with a test compound continues for approximately 16 hours at which time aliquots of medium from each well are removed and assayed for amyloid β.
ELISA is carried out by methods known in the art (see, e.g., Haass et al., Antibodies: A Laboratory Manual, Harlow and lane, Editors, Cold Spring Harbor Press, 1988) The capture antibody is typically a mouse monoclonal (IgG1/kβ-APPa) which recognizes the carboxyl terminal epitope of amyloid β. The specificity of the capture antibody insures measurement of amyloid β without interference from other secreted APP fragments that share amino acid sequence (amyloid β 1-16) homology with amyloid β but lack the carboxy-terminal region. The detecting antibody is typically an affinity-purified rabbit polyclonal antibody that is specific for the amino terminus of amyloid β.
Results from test compounds are compared to results obtained when cells are treated with control agents. Amyloid β levels are determined by comparison to a standard curve obtained by subjecting a range of known amounts of amyloid β to the ELISA.
A compound is identified as “active” when it inhibits cellular production of amyloid β relative to levels in control samples by at least 50% at the initial tested concentration without significant cytotoxicity. Active compounds are then assayed in dose-response experiments to determine the lowest dose of compound necessary for inhibition of amyloid β production.

[1] = Homo sapiens, 16 h, transfected H4 cells stably expressing APP, approximately 16 hours incubation, amyloid β in medium by ELISA, read-out: ACTIVITY (IC50, inhibition of amyloid β production)
[2] = transfected H4 cells stably expressing APP, approx. 16 h incubation, amyloid β in medium by ELISA, read-out: ACTIVITY (IC50, inhibition of amyloid β production)
[3] = transfected H4 cells stably expressing APP constructs, approximately 16 hours incubation, amyloid β in medium by ELISA, read-out: ACTIVITY (IC50, inhibition of amyloid β production)
[4] = Homo sapiens, 16 h, transfected H4 cells stably expressing APP constructs, approximately 16 hours incubation, amyloid β in medium by ELISA, read-out: ACTIVITY (IC50, inhibition of amyloid β production)
[5] = Homo sapiens, 16 h, transfected H4 cells stably expressing APP, approx. 16 h incubation, amyloid β in medium by ELISA, read-out: ACTIVITY (IC50, inhibition of amyloid β production)

- IC50 (Table B, transfected H4 cells stably expressing APP, approximately 16 hours incubation, amyloid β in medium by ELISA, read-out: ACTIVITY (inhibitory concentration IC50, inhibition of amyloid β production)): ≤ 25 nM
Compound: C[C@H](CCCC(=O)OC(C)(C)C)N(c1cc(Cl)ccc1Cl)S(=O)(=O)c1ccc(Cl)cc1 [Example 35, 1,1-dimethylethyl(5R)-5-[(2,5-dichlorophenyl)-[(4-chlorophenyl)sulfonyl]-amino]hexanoate]

Compound: O=S(=O)(c1ccc(Cl)cc1)N(Cc1cc(Cl)ccc1OCCCN1CCC(O)CC1)c1ccccc1 [Example 1011, 4-chloro-N-{5-chloro-2-[3-(4-hydroxy-1-piperidinyl)propoxy]benzyl}-N-phenylbenzenesulfonamide hydrochloride]
- IC50 [1]: > 500 nM

- IC50 [2]: 100 to 500 nM
Compound: CCCCC(=O)N(CC)CC(C)Oc1ccccc1C(C)N(c1cc(F)ccc1F)S(=O)(=O)c1ccc(Cl)cc1 (stereo not drawn) [Example 777, N-{2-[2-(1-{[(4-chlorophenyl)sulfonyl]-2,5-difluoroanilino}ethyl)phenoxy]propyl}-N-ethylpentamide]

Compound: CCS(=O)(=O)CCC[C@@H](C)N(c1cc(Cl)ccc1Cl)S(=O)(=O)c1ccc(Cl)cc1 [Example 1164, 4-chloro-N-[2,5-dichlorophenyl]-N-[1(R)-methyl-(4-ethylsulfonyl]butyl]benzenesulfonamide]
- IC50 [3]: ≤ 25 nM

- IC50 [2]: 100 to 500 nM
Compound: 2,4,6-trichloro-N-{3-[2-(1-{[(4-chlorophenyl)sulfonyl]-2,5-difluoroanilino}ethyl)phenoxy]propyl}benzamide [Example 728]

- IC50 [4]: > 10000 nM
Compound: CN(C)CCCOc1ccccc1CN(c1ccccc1)S(=O)(=O)c1ccc([N+](=O)[O-])cc1 [Example 1083, N-{2-[3-(dimethylamino)propoxy]benzyl}-4-nitro-N-phenylbenzenesulfonamide]

Compound: C[C@H](COC(=O)N(C)CCO)N(c1cc(Cl)ccc1Cl)S(=O)(=O)c1ccc(Cl)cc1 [Example 1249, 4-Chloro-N-(2,5-dichlorophenyl)-N-[2-[[N′-[2-(hydroxyethyl)-N′-methylamino]carbonyl]oxy]-(R)-1-methylethyl]benzenesulfonamide]
- IC50 [3]: ≤ 25 nM

- IC50 [2]: 100 to 500 nM
Compound: N-{3-[2-(1-{[(4-chlorophenyl)sulfonyl]-2,5-difluoroanilino}ethyl)phenoxy]propyl}-N-methyl-3-(trifluoromethyl)benzamide [Example 657]

- IC50 [1]: > 500 nM
Compound: O=S(=O)(c1ccc(Cl)cc1)N(Cc1ccccc1OCCCN1CCc2ccccc2C1)c1ccccc1 [Example 999, 4-chloro-N-{2-[3-(3,4-dihydro-2(1H)-isoquinolinyl)propoxy]benzyl}-N-phenylbenzenesulfonamide]

- IC50 [1]: 100 to 500 nM
Compound: C[C@H](c1ccccc1OCCCN)N(c1cc(F)ccc1F)S(=O)(=O)c1cccc(Cl)c1 [Example 836, N-{(1R)-1-[2-(3-aminopropoxy)phenyl}ethyl}-3-chloro-N-(2,5-difluorophenyl)benzenesulfonamide]

- IC50 [1]: > 500 nM
Compound: O=S(=O)(c1ccc(Cl)cc1)N(Cc1ccccc1OCCCNC1CCCCC1)c1ccccc1 [Example 996, 4-chloro-N-{2-[3-(cyclohexylamino)propoxy]benzyl}-N-phenylbenzenesulfonamide hydrochloride]

Compound: C[C@H](CCCN1CCCC(S(C)(=O)=O)C1)N(c1cc(Cl)ccc1Cl)S(=O)(=O)c1ccc(Cl)cc1 (stereo partly drawn) [Example 1136]
- IC50 [3]: 100 to 500 nM

- IC50 [1]: > 500 nM
Compound: COc1ccccc1C(=O)N1CCCCC1CCOc1ccccc1CN(c1cc(F)ccc1F)S(=O)(=O)c1ccc(Cl)cc1 (stereo not drawn) [Example 902, 4-chloro-N-(2,5-difluorophenyl)-N-(2-{2-[1-(2-methoxybenzoyl)-2-piperidinyl]ethoxy}benzyl)benzenesulfonamide]

- IC50 (Homo sapiens, 16 h, transfected H4 cells expressing APP, approximately 16 hours incubation, amyloid β in medium by ELISA, read-out: ACTIVITY (IC50, inhibition of amyloid β production)): > 500 nM
Compound: CCN(CC)CCCC(C)NC(=O)[C@@H](C)N(c1cc(Cl)ccc1F)S(=O)(=O)c1ccc(Cl)cc1 (stereo partly drawn) [Example 1312]

- IC50 [5]: 100 to 500 nM
Compound: O=C1CCCC(=O)N1CCCOc1ccccc1CN(c1cc(F)ccc1F)S(=O)(=O)c1ccc(Cl)cc1 [Example 704, 4-chloro-N-(2,5-difluorophenyl)-N-{2-[3-(2,6-dioxo-1-piperidinyl)propoxy]benzyl}benzenesulfonamide]

- IC50 [2]: 100 to 500 nM
Compound: N-{2-[2-(1-{[(4-chlorophenyl)sulfonyl]-2,5-difluoroanilino}ethyl)phenoxy}ethyl}-N-ethyl-3-methyl-2-butenamide [Example 642]

Compound: C[C@H](CCCN1CCC(CS(C)(=O)=O)CC1)N(c1cc(Cl)ccc1Cl)S(=O)(=O)c1ccc(Cl)cc1 [Example 1157, 4-chloro-N-(2,5-dichlorophenyl)-N-[4-[[4-(methylsulfonyl)methyl]-1-piperidinyl]-1(R)-methylbutyl)benzenesulfonamide]
- IC50 [3]: 100 to 500 nM

- IC50 [4]: 50 to 100 nM
Compound: C[C@H](CCCN1CCCCC1CS(C)(=O)=O)N(c1cc(Cl)ccc1Cl)S(=O)(=O)c1ccc(Cl)cc1 (stereo partly drawn) [Example 1121, 4-chloro-N-(2,5-dichlorophenyl)-N-[4-[2-[(methylsulfonyl)methyl]-1-piperidinyl]-1(R)-methylbutyl]benzenesulfonamide]

Compound: COC(=O)[C@@H](NC(=O)CCCC[C@@H](C)N(c1cc(Cl)ccc1F)S(=O)(=O)c1ccc(Cl)cc1)C(C)C [Example 542, (R)-4-Chloro-N-(5-chloro-2-fluorophenyl)-N-[6-[N-(S)-[1-(methoxycarbonyl)-2-methylpropyl]amino]-1-methyl-6-oxohexyl]benzenesulfonamide]
- IC50 [2]: 100 to 500 nM

- IC50 [5]: 100 to 500 nM
Compound: CC(c1ccccc1OCCCN(C)S(=O)(=O)c1ccc(I)cc1)N(c1cc(F)ccc1F)S(=O)(=O)c1ccc(Cl)cc1 (stereo not drawn) [Example 692, 4-chloro-N-(2,5-difluorophenyl)-N-[1-(2-{3-[[(4-iodophenyl)sulfonyl](methyl)amino]propoxy}phenyl)ethyl]benzenesulfonamide]

Compound: CC(C)C[C@@H](NC(=O)CCC[C@@H](C)N(c1cc(Cl)ccc1F)S(=O)(=O)c1ccc(Cl)cc1)C(=O)O [Example 1271, (R)-4-Chloro-N-(5-chloro-2-fluorophenyl)-N-[5-[N-(R)-[1-(carboxy)-3-methylbutyl]amino]-1-methyl-5-oxopentyl]benzenesulfonamide]
- IC50 [3]: 50 to 100 nM

- IC50 [2]: 100 to 500 nM
Compound: N-{3-[2-(1-{[(4-chlorophenyl)sulfonyl]-2,5-difluoroanilino}ethyl)phenoxy]propyl}-4-methoxy-N-methylbenzamide [Example 652]

- IC50 [3]: ≤ 25 nM
Compound: C[C@H](CCSCC(=O)O)N(c1cc(Cl)ccc1Cl)S(=O)(=O)c1ccc(Cl)cc1 [Example 1181, (6R)-6-[(2,5-dichlorophenyl)-[(4-chlorophenyl)sulfonyl]-amino]-3-thioheptanoic acid]

Compound: COC(=O)[C@H](CSCc1cc(F)ccc1[C@@H](C)N(c1cc(F)ccc1F)S(=O)(=O)c1ccc(Cl)cc1)NC(=O)OC(C)(C)C [Example 468, Methyl (2R)-2-[(tert-butoxycarbonyl)amino]-3-{[2-((1R)-1-{[(4-chlorophenyl)sulfonyl]-2,5-difluoroanilino}ethyl)-5-fluorobenzyl]sulfanyl}propanoate]
- IC50 (transfected H4 cells stably expressing APP, approximately 16 hours incubation, amyloid β in medium by ELISA, Table B, read-out: ACTIVITY (IC50, inhibition of amyloid β production)): 50 to 100 nM

- IC50 (transfected H4 cells stably expressing APP, approximately 16 hours incubation, amyloid β in medium by ELISA, read-out: ACTIVITY (IC50, inhibition of amyloid β production)): > 500 nM
Compound: 2-({[(4-chlorophenyl)sulfonyl]anilino}methyl)phenyl trifluoromethanesulfonate [Example 1004]

Compound: O=S(=O)(c1ccc(Cl)cc1)N(Cc1ccccc1OCCCN1CCCCC1)c1cccc(Br)c1 [Example 237, N-(3-bromophenyl)-4-chloro-N-{2-[3-(1-piperidinyl)propoxy]benzyl}benzenesulfonamide Hydrochloride]
- IC50 (read-out: ACTIVITY (inhibitory concentration IC50, inhibition of amyloid β production)): 25 to 50 nM

Compound: O=S(=O)(c1ccc(Cl)cc1)N(Cc1ccccc1OCCCN1CCC(Cc2ccccc2)CC1)c1ccccc1 [Example 880, N-{2-[3-(4-benzyl-1-piperidinyl)propoxy]benzyl}-4-chloro-N-phenylbenzenesulfonamide hydrochloride]
- IC50 [1]: > 500 nM
